How the values were obtained:
[1] = biological target: Sigma non-opioid intracellular receptor 1 (Cavia porcellus, UniProt Q60492); test: Displacement of [3H]-(+)-pentazocine from sigma1 receptor in guinea pig brain cortex membranes incubated for 120 mins by scintillation counting method
[2] = biological target: Kappa-type opioid receptor (Cavia porcellus, UniProt P41144); test: Displacement of [3H]U-69,593 from KOR in guinea pig brain membranes incubated for 120 mins by scintillation counting method
Sequence of Kappa-type opioid receptor (P41144 whole entry): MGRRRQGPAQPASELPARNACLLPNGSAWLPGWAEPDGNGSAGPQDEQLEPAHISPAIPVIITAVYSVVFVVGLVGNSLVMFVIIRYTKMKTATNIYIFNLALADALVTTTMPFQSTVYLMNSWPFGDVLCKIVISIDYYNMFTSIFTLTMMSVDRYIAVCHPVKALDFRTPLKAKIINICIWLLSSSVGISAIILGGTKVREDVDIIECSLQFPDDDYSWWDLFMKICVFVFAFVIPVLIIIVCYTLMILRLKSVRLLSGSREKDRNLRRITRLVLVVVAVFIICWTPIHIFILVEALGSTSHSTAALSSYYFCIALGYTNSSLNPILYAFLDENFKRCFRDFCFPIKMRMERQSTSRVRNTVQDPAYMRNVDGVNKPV

[3] = biological target: T1, Sigma intracellular receptor 2 (Rattus norvegicus, UniProt Q5U3Y7); test: Displacement of [3H]-di-o-tolylguanidine from sigma2 receptor in rat liver membranes incubated for 120 mins by scintillation counting method
T1 sequence (Q5U3Y7 whole entry): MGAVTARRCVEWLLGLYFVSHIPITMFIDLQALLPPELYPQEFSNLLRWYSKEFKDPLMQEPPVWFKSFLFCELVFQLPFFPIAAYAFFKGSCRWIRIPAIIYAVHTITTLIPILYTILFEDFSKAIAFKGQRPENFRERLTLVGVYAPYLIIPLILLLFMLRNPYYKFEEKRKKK

[4] = biological target: Mu-type opioid receptor (Cavia porcellus, UniProt P97266); test: Displacement of [3H]DAMGO from MOR in guinea pig brain membranes incubated for 120 mins by scintillation counting method
Sequence of Mu-type opioid receptor (Cavia porcellus, UniProt P97266) (P97266 whole entry): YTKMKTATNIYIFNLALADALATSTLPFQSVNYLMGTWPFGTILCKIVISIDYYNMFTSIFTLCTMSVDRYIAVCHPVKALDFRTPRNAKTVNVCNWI

[5] = biological target: Delta-type opioid receptor (Rattus norvegicus, UniProt P33533); test: Displacement of [3H]DPDPE from DOR in rat brain membranes incubated for 120 mins by scintillation counting method
Sequence of Delta-type opioid receptor (P33533 whole entry): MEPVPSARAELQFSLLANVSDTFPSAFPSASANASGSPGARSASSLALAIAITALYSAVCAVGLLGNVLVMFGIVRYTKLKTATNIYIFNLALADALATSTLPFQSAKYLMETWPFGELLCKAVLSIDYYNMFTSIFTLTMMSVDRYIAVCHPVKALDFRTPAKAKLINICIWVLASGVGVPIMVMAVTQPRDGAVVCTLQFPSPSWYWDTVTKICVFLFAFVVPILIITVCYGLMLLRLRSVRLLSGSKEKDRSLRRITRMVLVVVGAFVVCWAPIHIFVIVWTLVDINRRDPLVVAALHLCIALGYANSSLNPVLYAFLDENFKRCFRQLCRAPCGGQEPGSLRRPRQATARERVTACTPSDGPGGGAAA

[6] = biological target: Mu-type opioid receptor (Homo sapiens, UniProt P35372); test: Agonist activity at human MOR expressed in CHOK1 cells assessed as reduction in forskolin-induced intracellular cAMP increase after 45 mins by HTRF analysis
Sequence of Mu-type opioid receptor (Homo sapiens, UniProt P35372) (P35372 whole entry): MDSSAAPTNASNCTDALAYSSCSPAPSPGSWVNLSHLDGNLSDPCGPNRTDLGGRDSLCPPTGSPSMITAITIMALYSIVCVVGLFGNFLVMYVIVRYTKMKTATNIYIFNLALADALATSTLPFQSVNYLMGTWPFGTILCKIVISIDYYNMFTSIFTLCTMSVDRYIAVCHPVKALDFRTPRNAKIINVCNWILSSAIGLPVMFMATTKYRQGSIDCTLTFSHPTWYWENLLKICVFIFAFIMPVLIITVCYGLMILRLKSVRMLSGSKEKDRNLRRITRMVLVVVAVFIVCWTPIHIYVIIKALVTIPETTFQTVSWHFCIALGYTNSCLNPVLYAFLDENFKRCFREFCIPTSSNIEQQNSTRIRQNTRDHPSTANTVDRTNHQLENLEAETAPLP

Sequence of Sigma non-opioid intracellular receptor 1 (Q60492 whole entry): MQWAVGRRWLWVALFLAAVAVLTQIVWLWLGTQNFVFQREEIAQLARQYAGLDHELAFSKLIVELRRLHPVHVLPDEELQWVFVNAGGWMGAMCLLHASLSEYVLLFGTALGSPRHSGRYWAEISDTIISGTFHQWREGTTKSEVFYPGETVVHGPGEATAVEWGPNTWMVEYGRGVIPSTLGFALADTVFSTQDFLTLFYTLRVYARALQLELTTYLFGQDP

Structure (SMILES) | Ki [1] | Ki [3] | further results
CO[C@H]1Cc2ccccc2C2(CCC(NCc3ccc(C)cc3C)CC2)O1 (stereo partly specified) | > 1000 nM | – | –
FCC[C@H]1Cc2ccccc2C2(CCC(N3CCN(C4CCCCC4)CC3)CC2)O1 (stereo partly specified) | – | – | Ki [2]: > 1000 nM
OCC[C@H]1Cc2ccccc2C2(CCC(N3CCN(C4CCCCC4)CC3)CC2)O1 (stereo partly specified) | – | 505 nM | –
FCC[C@@H]1Cc2ccccc2C2(CCC(N3CCN(C4CCCCC4)CC3)CC2)O1 (stereo partly specified) | 12 nM | – | Ki [4]: > 1000 nM; Ki [2]: > 1000 nM; Ki [5]: > 1000 nM
Cc1ccc(CNC2CCC3(CC2)O[C@@H](CCF)Cc2ccccc23)c(C)c1 (stereo partly specified) | – | > 1000 nM | –
COc1cc2c(cc1OC)CN(C1CCC3(CC1)O[C@H](CCO)Cc1ccccc13)CC2 (stereo partly specified) | > 1000 nM | > 1000 nM | –
CO[C@@H]1Cc2ccccc2C2(CCC(NC3CCc4ccccc4CC3)CC2)O1 (stereo partly specified) | > 1000 nM | – | –
Cc1ccc(CNC2CCC3(CC2)O[C@@H](O)Cc2ccccc23)c(C)c1 (stereo partly specified) | > 1000 nM | – | –
COc1cc2c(cc1OC)CN(C1CCC3(CC1)O[C@@H](CCO)Cc1ccccc13)CC2 (stereo partly specified) | > 1000 nM | > 1000 nM | –
CCOC(=O)C[C@@H]1Cc2ccccc2C2(CCC(N3CCc4cc(OC)c(OC)cc4C3)CC2)O1 (stereo partly specified) | > 1000 nM | > 1000 nM | –
CO[C@H]1Cc2ccccc2C2(CCC(NCc3ccccc3)CC2)O1 (stereo partly specified) | – | > 1000 nM | –
CO[C@H]1Cc2ccccc2C2(CCC(NCCCc3cn(-c4ccc(F)cc4)c4ccccc34)CC2)O1 (stereo partly specified) | – | > 1000 nM | –
Cc1ccc(CNC2CCC3(CC2)O[C@H](CCO)Cc2ccccc23)c(C)c1 (stereo partly specified) | > 1000 nM | – | –
CCOC(=O)C[C@@H]1Cc2ccccc2C2(CCC(N3CCN(C4CCCCC4)CC3)CC2)O1 (stereo partly specified) | 12 nM | – | –
COc1cc2c(cc1OC)CN(C1CCC3(CC1)O[C@@H](OC)Cc1ccccc13)CC2 (stereo partly specified) | > 1000 nM | – | –
CCOC(=O)C[C@H]1Cc2ccccc2C2(CCC(N3CCN(C4CCCCC4)CC3)CC2)O1 (stereo partly specified) | 12 nM | – | Ki [2]: > 1000 nM; Ki [5]: > 1000 nM; EC50 [6]: > 10000 nM
CCOC(=O)C[C@H]1Cc2ccccc2C2(CCC(N3CCc4cc(OC)c(OC)cc4C3)CC2)O1 (stereo partly specified) | > 1000 nM | – | –
O[C@H]1Cc2ccccc2C2(CCC(N3CCN(C4CCCCC4)CC3)CC2)O1 (stereo partly specified) | – | – | Ki [4]: > 1000 nM; Ki [5]: > 1000 nM; EC50 [6]: > 10000 nM
CCOC(=O)C[C@@H]1Cc2ccccc2C2(CCC(NCc3ccc(C)cc3C)CC2)O1 (stereo partly specified) | > 1000 nM | – | –
COc1cc2c(cc1OC)CN(C1CCC3(CC1)O[C@@H](CCF)Cc1ccccc13)CC2 (stereo partly specified) | > 1000 nM | 505 nM | –
COc1cc2c(cc1OC)CN(C1CCC3(CC1)O[C@@H](O)Cc1ccccc13)CC2 (stereo partly specified) | > 1000 nM | > 1000 nM | –
Cc1ccc(CNC2CCC3(CC2)O[C@H](CCF)Cc2ccccc23)c(C)c1 (stereo partly specified) | > 1000 nM | 302 nM | –
CO[C@@H]1Cc2ccccc2C2(CCC(NCc3ccccc3)CC2)O1 (stereo partly specified) | – | > 1000 nM | –
CO[C@@H]1Cc2ccccc2C2(CCC(NCCCc3cn(-c4ccc(F)cc4)c4ccccc34)CC2)O1 (stereo partly specified) | > 1000 nM | > 1000 nM | –
O[C@@H]1Cc2ccccc2C2(CCC(N3CCN(C4CCCCC4)CC3)CC2)O1 (stereo partly specified) | – | 302 nM | –
COc1cc2c(cc1OC)CN(C1CCC3(CC1)O[C@H](CCF)Cc1ccccc13)CC2 (stereo partly specified) | – | > 1000 nM | –
